Measured values published in ChEMBL document CHEMBL4152347 (J Med Chem, 2018).

How the values were obtained:
[1] = tested on: Human immunodeficiency virus 1; assay: microbe, parasite or virus in culture; conditions: Human immunodeficiency virus 1, MT2
Description: Antiviral activity against wild type HIV1 infected in human MT2 cells after 4 to 5 days in presence of 10% FBS and 40% human serum albumin by dual luciferase reporter gene assay

[2] = tested on: Human immunodeficiency virus 1; assay: microbe, parasite or virus in culture; conditions: Human immunodeficiency virus 1, MT2; remark: listed apart in the source
[3] = in vitro; conditions: human, liver microsomes
Description: Half life in human liver microsomes at 0.5 uM after 1 hr in presence of NADPH by LC-MS/MS analysis

[4] = tested on: Human immunodeficiency virus 1; assay: microbe, parasite or virus in culture; conditions: Human immunodeficiency virus 1, MT2; remark: listed apart in the source
Description: Antiviral activity against wild type HIV1 infected in human MT2 cells after 4 to 5 days by dual luciferase reporter gene assay

[5] = in vitro; conditions: human, MT2 cells
Description: Cytotoxicity against human MT2 cells assessed as reduction in cell viability

[6] = tested on: Human immunodeficiency virus 1; assay: microbe, parasite or virus in culture; conditions: Human immunodeficiency virus 1, MT2; remark: listed apart in the source
Description: Antiviral activity against HIV1 expressing gag delta V370 mutant infected in human MT2 cells after 4 to 5 days by dual luciferase reporter gene assay

[7] = in vivo; conditions: Sprague-Dawley, rat, po, 5 mg/kg
[8] = physchem; conditions: aqueous
Description: Aqueous solubility of the compound

[9] = in vitro; conditions: rat, liver microsomes
Description: Half life in rat liver microsomes at 0.5 uM after 1 hr in presence of NADPH by LC-MS/MS analysis

[10] = in vivo; conditions: Sprague-Dawley, rat, po, 5 mg/kg; remark: listed apart in the source

C=C(C)[C@@H]1CC[C@]2(NCCN3CCN(S(C)(=O)=O)CC3)CC[C@]3(C)[C@H](CC[C@@H]4[C@@]5(C)CC=C(c6ccc(C(=O)O)cc6)C(C)(C)[C@@H]5CC[C@]43C)[C@@H]12
EC50 [1]: 26.1 nM
EC50 [2]: 5.2 nM
half-life at 1 h, 0.5 µM [3]: > 2 h
EC50 [4]: 3.3 nM
CC50 [5]: 10700 nM
EC50 [6]: 27.2 nM
AUC(0-t) at 24 h [7]: 28.6 µM·h
solubility [8]: < 1 µg/mL
half-life at 1 h, 0.5 µM [9]: > 2 h

C=C(C)[C@@H]1CC[C@]2(NCCN3CCN(S(=O)(=O)CC)CC3)CC[C@]3(C)[C@H](CC[C@@H]4[C@@]5(C)CC=C(c6ccc(C(=O)O)cc6)C(C)(C)[C@@H]5CC[C@]43C)[C@@H]12
EC50 [2]: 10.2 nM
half-life at 1 h, 0.5 µM [3]: > 2 h
EC50 [4]: 3.7 nM
CC50 [5]: 13400 nM
EC50 [6]: 19.6 nM
half-life at 1 h, 0.5 µM [9]: > 2 h

C=C(C)[C@@H]1CC[C@]2(NCCN3CCN(S(=O)(=O)C(C)C)CC3)CC[C@]3(C)[C@H](CC[C@@H]4[C@@]5(C)CC=C(c6ccc(C(=O)O)cc6)C(C)(C)[C@@H]5CC[C@]43C)[C@@H]12
EC50 [2]: 9.9 nM
half-life at 1 h, 0.5 µM [3]: > 2 h
EC50 [4]: 5.2 nM
CC50 [5]: 11900 nM
EC50 [6]: 64.2 nM
half-life at 1 h, 0.5 µM [9]: > 2 h

C=C(C)[C@@H]1CC[C@]2(NC(=O)OCCN3CCS(=O)(=O)CC3)CC[C@]3(C)[C@H](CC[C@@H]4[C@@]5(C)CC=C(c6ccc(C(=O)O)cc6)C(C)(C)[C@@H]5CC[C@]43C)[C@@H]12
EC50 [2]: 10.7 nM
half-life at 1 h, 0.5 µM [3]: > 2 h
EC50 [4]: 4.6 nM
CC50 [5]: 9900 nM
EC50 [6]: 93.9 nM
AUC(0-t) at 24 h [7]: 4.97 µM·h
half-life at 1 h, 0.5 µM [9]: > 2 h

C=C(C)[C@@H]1CC[C@]2(NCCCN3CCS(=O)(=O)CC3)CC[C@]3(C)[C@H](CC[C@@H]4[C@@]5(C)CC=C(c6ccc(C(=O)O)cc6)C(C)(C)[C@@H]5CC[C@]43C)[C@@H]12
EC50 [1]: 23.6 nM
EC50 [2]: 7.5 nM
half-life at 1 h, 0.5 µM [3]: > 2 h
EC50 [4]: 3.5 nM
CC50 [5]: 15800 nM
EC50 [6]: 37.3 nM
AUC(0-t) at 24 h [7]: 9.61 µM·h
AUC(0-t) at 6 h [10]: 9.36 µM·h
half-life at 1 h, 0.5 µM [9]: > 2 h

C=C(C)[C@@H]1CC[C@]2(C(=O)NCCCN3CCS(=O)(=O)CC3)CC[C@]3(C)[C@H](CC[C@@H]4[C@@]5(C)CC=C(c6ccc(C(=O)O)cc6)C(C)(C)[C@@H]5CC[C@]43C)[C@@H]12
EC50 [2]: 1.4 nM
half-life at 1 h, 0.5 µM [3]: > 2 h
EC50 [4]: 2.1 nM
CC50 [5]: 10600 nM
EC50 [6]: 42.8 nM
AUC(0-t) at 6 h [10]: 1.28 µM·h
half-life at 1 h, 0.5 µM [9]: > 2 h

C=C(C)[C@@H]1CC[C@]2(NCCN3CCCCS3(=O)=O)CC[C@]3(C)[C@H](CC[C@@H]4[C@@]5(C)CC=C(c6ccc(C(=O)O)cc6)C(C)(C)[C@@H]5CC[C@]43C)[C@@H]12
EC50 [2]: 2.5 nM
half-life at 1 h, 0.5 µM [3]: > 2 h
EC50 [4]: 4 nM
CC50 [5]: 9530 nM
EC50 [6]: 36.8 nM
AUC(0-t) at 24 h [7]: 4.24 µM·h
half-life at 1 h, 0.5 µM [9]: > 2 h

C=C(C)[C@@H]1CC[C@]2(NCCO)CC[C@]3(C)[C@H](CC[C@@H]4[C@@]5(C)CC=C(c6ccc(C(=O)O)cc6)C(C)(C)[C@@H]5CC[C@]43C)[C@@H]12
EC50 [2]: 9.9 nM
half-life at 1 h, 0.5 µM [3]: > 2 h
CC50 [5]: 8480 nM
EC50 [6]: 66 nM
AUC(0-t) at 6 h [10]: 4.98 µM·h
half-life at 1 h, 0.5 µM [9]: > 2 h

C=C(C)[C@@H]1CC[C@]2(NC(=O)NCCN3CCS(=O)(=O)CC3)CC[C@]3(C)[C@H](CC[C@@H]4[C@@]5(C)CC=C(c6ccc(C(=O)O)cc6)C(C)(C)[C@@H]5CC[C@]43C)[C@@H]12
EC50 [2]: 4.9 nM
half-life at 1 h, 0.5 µM [3]: > 2 h
EC50 [4]: 5.9 nM
CC50 [5]: 17600 nM
EC50 [6]: 63.5 nM
half-life at 1 h, 0.5 µM [9]: > 2 h

C=C(C)[C@@H]1CC[C@]2(NCCN3CC4(C3)CN(S(C)(=O)=O)C4)CC[C@]3(C)[C@H](CC[C@@H]4[C@@]5(C)CC=C(c6ccc(C(=O)O)cc6)C(C)(C)[C@@H]5CC[C@]43C)[C@@H]12
EC50 [1]: 7.4 nM
half-life at 1 h, 0.5 µM [3]: > 2 h
EC50 [4]: 1.6 nM
CC50 [5]: 12000 nM
EC50 [6]: 13.3 nM
half-life at 1 h, 0.5 µM [9]: > 2 h

C=C(C)[C@@H]1CC[C@]2(NCCN3CCS(=N)(=O)CC3)CC[C@]3(C)[C@H](CC[C@@H]4[C@@]5(C)CC=C(c6ccc(C(=O)O)cc6)C(C)(C)[C@@H]5CC[C@]43C)[C@@H]12
EC50 [2]: 1.5 nM
half-life at 1 h, 0.5 µM [3]: > 2 h
EC50 [4]: 1.1 nM
CC50 [5]: 14000 nM
EC50 [6]: 7.5 nM
AUC(0-t) at 24 h [7]: 20.7 µM·h
solubility [8]: < 1 µg/mL
half-life at 1 h, 0.5 µM [9]: > 2 h

C=C(C)[C@@H]1CC[C@]2(NCCN3CC4C(C3)C4NS(C)(=O)=O)CC[C@]3(C)[C@H](CC[C@@H]4[C@@]5(C)CC=C(c6ccc(C(=O)O)cc6)C(C)(C)[C@@H]5CC[C@]43C)[C@@H]12 (stereo not given in full)
EC50 [1]: 21.3 nM
half-life at 1 h, 0.5 µM [3]: > 2 h
EC50 [4]: 2.8 nM
CC50 [5]: 15200 nM
EC50 [6]: 18 nM
half-life at 1 h, 0.5 µM [9]: > 2 h

C=C(C)[C@@H]1CC[C@]2(NCCN3CCC(S(C)(=O)=O)CC3)CC[C@]3(C)[C@H](CC[C@@H]4[C@@]5(C)CC=C(c6ccc(C(=O)O)cc6)C(C)(C)[C@@H]5CC[C@]43C)[C@@H]12
EC50 [1]: 6.1 nM
EC50 [2]: 2.7 nM
half-life at 1 h, 0.5 µM [3]: > 2 h
EC50 [4]: 1.8 nM
CC50 [5]: 13700 nM
EC50 [6]: 12 nM
half-life at 1 h, 0.5 µM [9]: > 2 h

C=C(C)[C@@H]1CC[C@]2(NCCC3CCS(=O)(=O)CC3)CC[C@]3(C)[C@H](CC[C@@H]4[C@@]5(C)CC=C(c6ccc(C(=O)O)cc6)C(C)(C)[C@@H]5CC[C@]43C)[C@@H]12
EC50 [1]: 37.5 nM
half-life at 1 h, 0.5 µM [3]: > 2 h
EC50 [4]: 3.7 nM
CC50 [5]: 4550 nM
half-life at 1 h, 0.5 µM [9]: > 2 h

C=C(C)[C@@H]1CC[C@]2(NC(=O)CCN3CCS(=O)(=O)CC3)CC[C@]3(C)[C@H](CC[C@@H]4[C@@]5(C)CC=C(c6ccc(C(=O)O)cc6)C(C)(C)[C@@H]5CC[C@]43C)[C@@H]12
EC50 [2]: 11.2 nM
half-life at 1 h, 0.5 µM [3]: > 2 h
EC50 [4]: 6.8 nM
CC50 [5]: 16300 nM
EC50 [6]: 101 nM
half-life at 1 h, 0.5 µM [9]: > 2 h

C=C(C)[C@@H]1CC[C@]2(C(=O)NCCN3CCS(=O)(=O)CC3)CC[C@]3(C)[C@H](CC[C@@H]4[C@@]5(C)CC=C(c6ccc(C(=O)O)cc6)C(C)(C)[C@@H]5CC[C@]43C)[C@@H]12
EC50 [2]: 5.5 nM
half-life at 1 h, 0.5 µM [3]: > 2 h
EC50 [4]: 2.4 nM
CC50 [5]: 7900 nM
EC50 [6]: 60.5 nM
AUC(0-t) at 24 h [7]: 2.47 µM·h
half-life at 1 h, 0.5 µM [9]: > 2 h

C=C(C)[C@@H]1CC[C@]2(NC(=O)C(C)N3CCS(=O)(=O)CC3)CC[C@]3(C)[C@H](CC[C@@H]4[C@@]5(C)CC=C(c6ccc(C(=O)O)cc6)C(C)(C)[C@@H]5CC[C@]43C)[C@@H]12 (stereo not given in full)
EC50 [2]: 5 nM
half-life at 1 h, 0.5 µM [3]: > 2 h
EC50 [4]: 1.8 nM
CC50 [5]: > 10000 nM
EC50 [6]: 123 nM
half-life at 1 h, 0.5 µM [9]: > 2 h

C=C(C)[C@@H]1CC[C@]2(NCCN3C[C@@H]4C[C@H]3CN4S(C)(=O)=O)CC[C@]3(C)[C@H](CC[C@@H]4[C@@]5(C)CC=C(c6ccc(C(=O)O)cc6)C(C)(C)[C@@H]5CC[C@]43C)[C@@H]12
EC50 [2]: 2.9 nM
half-life at 1 h, 0.5 µM [3]: > 2 h
EC50 [4]: 2.7 nM
CC50 [5]: 9300 nM
EC50 [6]: 9.3 nM
AUC(0-t) at 24 h [7]: 7.08 µM·h
half-life at 1 h, 0.5 µM [9]: > 2 h

C=C(C)[C@@H]1CC[C@]2(C(=O)NCCC(=O)O)CC[C@]3(C)[C@H](CC[C@@H]4[C@@]5(C)CC=C(c6ccc(C(=O)O)cc6)C(C)(C)[C@@H]5CC[C@]43C)[C@@H]12
half-life at 1 h, 0.5 µM [3]: > 2 h
AUC(0-t) at 24 h [7]: 79.3 µM·h
half-life at 1 h, 0.5 µM [9]: > 2 h

C=C(C)[C@@H]1CC[C@]2(NC(=O)C(C(C)C)N3CCS(=O)(=O)CC3)CC[C@]3(C)[C@H](CC[C@@H]4[C@@]5(C)CC=C(c6ccc(C(=O)O)cc6)C(C)(C)[C@@H]5CC[C@]43C)[C@@H]12 (stereo not given in full)
EC50 [2]: 7.1 nM
half-life at 1 h, 0.5 µM [3]: > 2 h
EC50 [4]: 3.9 nM
CC50 [5]: 23500 nM
EC50 [6]: 727 nM
half-life at 1 h, 0.5 µM [9]: > 2 h

C=C(C)[C@@H]1CC[C@]2(NCCN3CCC4(C3)CN(S(C)(=O)=O)C4)CC[C@]3(C)[C@H](CC[C@@H]4[C@@]5(C)CC=C(c6ccc(C(=O)O)cc6)C(C)(C)[C@@H]5CC[C@]43C)[C@@H]12
EC50 [1]: 24.5 nM
half-life at 1 h, 0.5 µM [3]: > 2 h
EC50 [4]: 1.7 nM
CC50 [5]: 11000 nM
EC50 [6]: 11.4 nM
half-life at 1 h, 0.5 µM [9]: > 2 h

C=C(C)[C@@H]1CC[C@]2(NCCNC3CCN(S(C)(=O)=O)C3)CC[C@]3(C)[C@H](CC[C@@H]4[C@@]5(C)CC=C(c6ccc(C(=O)O)cc6)C(C)(C)[C@@H]5CC[C@]43C)[C@@H]12 (stereo not given in full)
EC50 [1]: 13.7 nM
half-life at 1 h, 0.5 µM [3]: > 2 h
EC50 [4]: 1.9 nM
CC50 [5]: 10700 nM
half-life at 1 h, 0.5 µM [9]: > 2 h

C=C(C)[C@@H]1CC[C@]2(NCCNC3CCS(=O)(=O)C3)CC[C@]3(C)[C@H](CC[C@@H]4[C@@]5(C)CC=C(c6ccc(C(=O)O)cc6)C(C)(C)[C@@H]5CC[C@]43C)[C@@H]12 (stereo not given in full)
EC50 [1]: 15.9 nM
EC50 [2]: 3.7 nM
half-life at 1 h, 0.5 µM [3]: > 2 h
EC50 [4]: 2.2 nM
CC50 [5]: 11100 nM
EC50 [6]: 11.6 nM
half-life at 1 h, 0.5 µM [9]: > 2 h

C=C(C)[C@@H]1CC[C@]2(NC(=O)CN3CCS(=O)(=O)CC3)CC[C@]3(C)[C@H](CC[C@@H]4[C@@]5(C)CC=C(c6ccc(C(=O)O)cc6)C(C)(C)[C@@H]5CC[C@]43C)[C@@H]12
EC50 [2]: 3.5 nM
half-life at 1 h, 0.5 µM [3]: > 2 h
EC50 [4]: 2.1 nM
CC50 [5]: 9900 nM
EC50 [6]: 18.9 nM
AUC(0-t) at 6 h [10]: 8.74 µM·h
half-life at 1 h, 0.5 µM [9]: > 2 h
